Literature values as cited in patent US20170095494A1, “Process for the Extraction of Strawberry P-Coumaroyl Hexose and/or Polyphenols, Extract and Uses Thereof” (Nutra Canada Inc., priority 2014, published 2017).

System: AMPK
Details: Bhattacharya et al, 2013, Yoon et al

## O=C(O)/C=C/c1ccc(O)cc1 [p-coumaric acid]
  impact on AMPK and glucose uptake in muscle cells: increased glucose uptake
